In US11384074B2, “Pesticidally active pyrrole derivatives” (Syngenta Participations AG, priority 2017, dated 2022):

Key:
Type in all cases: in vivo
[1] = tested on: Diabrotica Balteata (Corn Root Worm); assay: Diabrotica balteata (corn root worm) mortality on sprayed maize sprouts; conditions: 96 h, application rate of 200 ppm, L2 larvae, assessed 4 days after infestation, read-out: control (mortality)
Experimental: Diabrotica Balteata (Corn Root Worm):
Maize sprouts placed onto an agar layer in 24-well microtiter plates were treated with aqueous test solutions prepared from 10′000 ppm DMSO stock solutions by spraying. After drying, the plates were infested with L2 larvae (6 to 10 per well). The samples were assessed for mortality 4 days after infestation.

[2] = tested on: Euschistus heros (Neotropical Brown Stink Bug); assay: Euschistus heros feeding/contact activity on sprayed soybean leaves; conditions: 120 h, application rate of 200 ppm, N2 nymphs, assessed 5 days after infestation, read-out: control (mortality)
Experimental: Euschistus heros (Neotropical Brown Stink Bug): Feeding/Contact Activity
Soybean leaves on agar in 24-well microtiter plates were sprayed with aqueous test solutions prepared from 10′000 ppm DMSO stock solutions. After drying the leaves were infested with N2 nymphs. The samples were assessed for mortality 5 days after infestation.

[3] = tested on: Myzus persicae (Green Peach Aphid); assay: Myzus persicae feeding/contact activity on sprayed sunflower leaf discs; conditions: foliar, 144 h, application rate of 200 ppm, aphid population of mixed ages, assessed 6 days after infestation, read-out: control (mortality)
Experimental: Myzus persicae (Green Peach Aphid): Feeding/Contact Activity
(§1) Sunflower leaf discs were placed onto agar in a 24-well microtiter plate and sprayed with aqueous test solutions prepared from 10′000 ppm DMSO stock solutions. After drying, the leaf discs were infested with an aphid population of mixed ages. The samples were assessed for mortality 6 days after infestation.

[4] = tested on: Plutella xylostella (Diamond Back Moth); assay: Plutella xylostella feeding/contact activity on treated artificial diet; conditions: 120 h, application rate of 200 ppm, L2 larvae, assessed 5 days after infestation, read-out: control (mortality)
Experimental: Plutella xylostella (Diamond Back Moth): Feeding/Contact Activity
24-well microtiter plates with artificial diet were treated with aqueous test solutions prepared from 10′000 ppm DMSO stock solutions by pipetting. After drying, the plates were infested with L2 larvae (10 to 15 per well). The samples were assessed for mortality 5 days after infestation.

[5] = tested on: Spodoptera littoralis (Egyptian Cotton Leaf Worm); assay: Spodoptera littoralis feeding/contact activity on sprayed cotton leaf discs; conditions: foliar, 72 h, application rate of 200 ppm, L1 larvae, assessed 3 days after infestation, read-out: control (mortality)
Experimental: Spodoptera littoralis (Egyptian Cotton Leaf Worm): Feeding/Contact Activity
Cotton leaf discs were placed onto agar in 24-well microtiter plates and sprayed with aqueous test solutions prepared from 10′000 ppm DMSO stock solutions. After drying the leaf discs were infested with five L1 larvae. The samples were assessed for mortality 3 days after infestation.

[6] = tested on: Tetranychus urticae (Two-Spotted Spider Mite); assay: Tetranychus urticae feeding/contact activity on sprayed bean leaf discs; conditions: foliar, 192 h, application rate of 200 ppm, mite population of mixed ages, assessed 8 days after infestation, read-out: control (mortality on mixed population, mobile stages)
Experimental: Tetranychus urticae (Two-Spotted Spider Mite): Feeding/Contact Activity
Bean leaf discs on agar in 24-well microtiter plates were sprayed with aqueous test solutions prepared from 10′000 ppm DMSO stock solutions. After drying the leaf discs were infested with a mite population of mixed ages. The samples were assessed for mortality on mixed population (mobile stages) 8 days after infestation.

[7] = tested on: Thrips tabaci (Onion thrips); assay: Thrips tabaci feeding/contact activity on sprayed sunflower leaf discs; conditions: foliar, 144 h, application rate of 200 ppm, thrips population of mixed ages, assessed 6 days after infestation, read-out: control (mortality)
Experimental: Thrips tabaci (Onion thrips): Feeding/Contact Activity
as §1, with “on” for “onto”, “in” for “in a”, “plates” for “plate”, “drying” for “drying,”, “a thrips” for “an aphid”

Measured: mortality at 200 ppm

Cn1cc(C(F)(F)C(F)(F)F)c(C(F)(F)F)c1-n1cc(-c2cc(C(=O)NC3CC3)c(C#N)s2)cn1 [Compound 1, 2-cyano-N-cyclopropyl-5-[1-[1-methyl-4-(1,1,2,2,2-pentafluoroethyl)-3-(trifluoromethyl)pyrrol-2-yl]pyrazol-4-yl]thiophene-3-carboxamide]
≥ 80%: all assays above

Cn1cc(C(F)(F)F)c(C(F)(F)C(F)(F)F)c1-n1cc(-c2cc(C(=O)NC3CC3)c(C#N)s2)cn1 [Compound 2, 2-cyano-N-cyclopropyl-5-[1-[1-methyl-3-(1,1,2,2,2-pentafluoroethyl)-4-(trifluoromethyl)pyrrol-2-yl]pyrazol-4-yl]thiophene-3-carboxamide]
not listed: [7]
≥ 80%: all other assays above

Cn1cc(C(F)(F)C(F)(F)F)c(C(F)(F)F)c1-c1cc(-c2cc(C(=O)NC3CC3)c(C#N)s2)on1 [Compound 3, 2-cyano-N-cyclopropyl-5-[3-[1-methyl-4-(1,1,2,2,2-pentafluoroethyl)-3-(trifluoromethyl)pyrrol-2-yl]isoxazol-5-yl]thiophene-3-carboxamide]
not listed: [3]
≥ 80%: all other assays above

Cn1cc(C(F)(F)F)c(C(F)(F)C(F)(F)F)c1-c1cc(-c2cc(C(=O)NC3CC3)c(C#N)s2)on1 [Compound 4, 2-cyano-N-cyclopropyl-5-[3-[1-methyl-3-(1,1,2,2,2-pentafluoroethyl)-4-(trifluoromethyl)pyrrol-2-yl]isoxazol-5-yl]thiophene-3-carboxamide]
not listed: [2] | [3]
≥ 80%: all other assays above

Cn1c(-n2cc(-c3ccc(Cl)c(C(=O)NC4(C#N)CC4)c3)cn2)cc(C(F)(C(F)(F)F)C(F)(F)F)c1Cl [Compound 5, 2-chloro-5-[1-[5-chloro-1-methyl-4-[1,2,2,2-tetrafluoro-1-(trifluoromethyl)ethyl]pyrrol-2-yl]pyrazol-4-yl]-N-(1-cyanocyclopropyl)benzamide]
≥ 80%: [1] | [4] | [5] | [6]

Cn1c(Cl)c(C(F)(C(F)(F)F)C(F)(F)F)c(Br)c1-n1cc(-c2ccc(Cl)c(C(=O)NC3(C#N)CC3)c2)cn1 [Compound 6, 5-[1-[3-bromo-5-chloro-1-methyl-4-[1,2,2,2-tetrafluoro-1-(trifluoromethyl)ethyl]pyrrol-2-yl]pyrazol-4-yl]-2-chloro-N-(1-cyanocyclopropyl)benzamide]
≥ 80%: [1] | [4] | [5] | [6]

Cn1c(Br)cc(C(F)(C(F)(F)F)C(F)(F)F)c1-c1cc(-c2ccc(Cl)c(C(=O)NC3(C#N)CC3)c2)on1 [Compound 7, 5-[3-[5-bromo-1-methyl-3-[1,2,2,2-tetrafluoro-1-(trifluoromethyl)ethyl]pyrrol-2-yl]isoxazol-5-yl]-2-chloro-N-(1-cyanocyclopropyl)benzamide]
≥ 80%: [1] | [3] | [4] | [5]
